Here are results for one compound from ChEMBL document CHEMBL4665657, “2-Phenyl-8-(1-phenylallyl)-chromenone compounds have a pan-PPAR modulator pharmacophore” (Bioorg Med Chem, 2019).

Calls of active or inactive are those of the source. The rule behind the calls is not given here.

The test system of test [1] is BMMSC. Description: Induction of adipogenesis in human BMMSC cells assessed as increase in ACACB mRNA at 10 uM incubated for 3 days by qRT-PCR analysis. It counts as functional, cell-based. To be noted: time 3.0 day. On the technique in general: Quantitative PCR measures a nucleic acid by following its amplification.
The test system of test [2] is BMMSC. Description: Induction of adipogenesis in human BMMSC cells assessed as increase in HMGCR mRNA at 10 uM incubated for 3 days by qRT-PCR analysis. The class given is functional, cell-based. To be noted: time 3.0 day.
The test system of test [3] is BMMSC. Put plainly: Induction of adipogenesis in human BMMSC cells assessed as increase in adiponectin mRNA at 10 uM incubated for 3 days by qRT-PCR analysis. The class given is functional, cell-based. To be noted: time 3.0 day.
The subject of test [4] is BMMSC. Description: Induction of adipogenesis in human BMMSC cells assessed as increase in adiponectin secretion at 10 uM in presence of pioglitazone incubated for 5 days by ELISA. The class given is functional, cell-based. The following applies: time 5.0 day. For orientation: In an ELISA, binding on a coated surface is turned into a signal by an enzyme label.
The subject of test [5] is BMMSC. Put plainly: Induction of adipogenesis in human BMMSC cells assessed as increase in adiponectin secretion at 10 uM in presence of WY14643 incubated for 5 days by ELISA. The class given is functional, cell-based. The following applies: time 5.0 day.
In test [6] the target is T1, Bile acid receptor (Homo sapiens) (UniProt Q96RI1).
T1 sequence (whole entry): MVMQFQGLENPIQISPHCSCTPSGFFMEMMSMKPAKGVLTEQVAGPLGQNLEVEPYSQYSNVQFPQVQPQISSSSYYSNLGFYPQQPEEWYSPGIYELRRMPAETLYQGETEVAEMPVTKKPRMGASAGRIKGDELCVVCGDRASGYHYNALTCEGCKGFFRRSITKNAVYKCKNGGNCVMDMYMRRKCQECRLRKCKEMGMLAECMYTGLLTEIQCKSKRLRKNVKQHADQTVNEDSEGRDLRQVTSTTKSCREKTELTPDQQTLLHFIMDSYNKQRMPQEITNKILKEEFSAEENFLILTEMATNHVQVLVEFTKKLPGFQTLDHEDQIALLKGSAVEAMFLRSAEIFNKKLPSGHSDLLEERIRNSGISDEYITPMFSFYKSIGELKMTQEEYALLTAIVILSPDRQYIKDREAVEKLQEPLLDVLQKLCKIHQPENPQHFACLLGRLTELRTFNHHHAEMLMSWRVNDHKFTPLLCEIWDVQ
Put plainly: Transactivation of FXR (unknown origin) by TR-FRET assay. In general terms: Time-resolved FRET reads energy transfer from a long-lived donor to a nearby acceptor.

In test [7] the target is T2, Peroxisome proliferator-activated receptor gamma (Homo sapiens, UniProt P37231).
T2 sequence (P37231 whole entry): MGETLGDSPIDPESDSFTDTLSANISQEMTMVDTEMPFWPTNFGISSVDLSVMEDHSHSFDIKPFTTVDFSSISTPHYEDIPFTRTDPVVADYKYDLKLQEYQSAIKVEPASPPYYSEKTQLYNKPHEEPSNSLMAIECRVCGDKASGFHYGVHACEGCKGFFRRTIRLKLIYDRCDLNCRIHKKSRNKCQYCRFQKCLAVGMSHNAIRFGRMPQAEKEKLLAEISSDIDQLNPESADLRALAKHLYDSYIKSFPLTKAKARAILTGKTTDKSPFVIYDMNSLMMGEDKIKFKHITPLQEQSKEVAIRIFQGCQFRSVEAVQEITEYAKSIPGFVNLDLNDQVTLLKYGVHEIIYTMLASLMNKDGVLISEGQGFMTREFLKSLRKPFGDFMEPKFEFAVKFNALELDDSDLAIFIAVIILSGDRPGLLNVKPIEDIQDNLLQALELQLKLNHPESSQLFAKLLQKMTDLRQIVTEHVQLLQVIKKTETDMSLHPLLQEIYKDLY
Description: Binding affinity to PPARgamma (unknown origin) by TR-FRET assay.

Test [8] has as its system BMMSC. Put plainly: Induction of adipogenesis in human BMMSC cells assessed as lipid droplet formation at 10 uM incubated for 5 days by oil red O staining based inverted microscopy analysis. It counts as functional, cell-based. To be noted: time 5.0 day.
Test [9] deals with BMMSC. Put plainly: Induction of adipogenesis in human BMMSC cells assessed as increase in adiponectin secretion at 10 uM incubated for 5 days by ELISA. It counts as functional, cell-based. To be noted: time 5.0 day.
The subject of test [10] is BMMSC. Description: Induction of adipogenesis in human BMMSC cells assessed as increase in ACOX1 mRNA at 10 uM incubated for 3 days by qRT-PCR analysis. The class given is functional, cell-based. To be noted: time 3.0 day.

Take `C=CC(c1ccccc1)c1c(O)cc(O)c2c(=O)cc(-c3ccccc3)oc12` (stereo not given): the outcome in the test with BMMSC [1], with BMMSC [2], in the test on BMMSC [3], in the test on BMMSC [4], with BMMSC [5] and in the test on BMMSC [8] was Active. Also, the outcome in the test on BMMSC [9] and with BMMSC [10] was Active. Besides, the result in test [6] was inactive. Also, the Ki in test [7] was determined as 1410 nM.

By Ki is commonly meant a measure of affinity in units of concentration, obtained from inhibition or displacement. Low values mean a stronger hold on the target, high ones a looser hold on the target.
